In patent publication US11447445B2, “Diabetes and metabolic syndrome treatment with a novel dual modulator of soluble epoxide hydrolase and peroxisome proliferator-activated receptors” (priority 2015, dated 2022):
In brackets after ≈: the same amount, converted by molar mass.

Tests used:
[1] = biological target: T1, mFFA1 (Mus musculus, UniProt Q76JU9); assay: IP1 accumulation in HEK293 cells stably expressing mFFA1; format: cell-based; details: read-out: pEC50 (IP1 accumulation) (converted)
T1 construct: expressed in transfected cells; host or cells: Flp-In T-REx 293 (HEK293), doxycycline-induced
T1 sequence (Q76JU9 whole entry): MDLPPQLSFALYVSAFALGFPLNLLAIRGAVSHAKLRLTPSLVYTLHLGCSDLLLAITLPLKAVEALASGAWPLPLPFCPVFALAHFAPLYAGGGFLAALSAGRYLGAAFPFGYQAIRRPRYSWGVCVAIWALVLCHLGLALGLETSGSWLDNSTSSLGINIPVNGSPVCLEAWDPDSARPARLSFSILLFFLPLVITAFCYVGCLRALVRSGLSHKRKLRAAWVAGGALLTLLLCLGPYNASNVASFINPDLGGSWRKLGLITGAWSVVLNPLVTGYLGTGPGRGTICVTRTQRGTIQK
Procedure: (§1) Stably transfected Flp-In™ T-REx™ 293 cells (Invitrogen) were cultured in Dulbecco's modified Eagles's medium (DMEM) containing 10% (v/v) fetal bovine serum (FBS), penicillin (100 U/mL), streptomycin ([…]), Hygromycin B (100 μg/mL) and Blasticidin (15 μg/mL) at 37° C. and 5% CO2. All experiments were carried out after inducing receptor expression with 1 μg/mL doxycycline for approximately 18 hours, according to manufacturer's instructions (Invitrogen).
(§2) Compound activity on the Gq coupled FFA1 receptor constructs was assessed by measuring intracellular level of inositolmonophosphate (IPI) using the HTRF®-IP-One kit (Cisbio International) according to manufacturer's instructions. Briefly, 10,000 receptor expressing cells were seeded into a 384 well microplate and incubated 20 minutes at 37° C. […] Data analysis and nonlinear regression curve fitting were carried out using the GraphPad Prism® software v5.04 (Graphpad Software).

[2] = biological target: T2, PPARα (Homo sapiens, UniProt Q07869); format: cell-based
T2 construct: expressed in transfected cells; host or cells: COS-7
T2 sequence (Q07869 239-466): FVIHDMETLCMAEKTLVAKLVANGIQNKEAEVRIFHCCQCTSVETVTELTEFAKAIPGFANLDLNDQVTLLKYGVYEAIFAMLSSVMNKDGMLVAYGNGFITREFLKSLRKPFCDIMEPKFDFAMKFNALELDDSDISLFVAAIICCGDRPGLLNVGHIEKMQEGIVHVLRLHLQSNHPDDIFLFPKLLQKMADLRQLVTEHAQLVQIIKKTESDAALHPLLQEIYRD

[3] = biological target: T3, recombinant human sEH (Homo sapiens, UniProt P34913); assay: biochemical; details: read-out: IC50 sEH (converted)
T3 sequence (P34913 1-555): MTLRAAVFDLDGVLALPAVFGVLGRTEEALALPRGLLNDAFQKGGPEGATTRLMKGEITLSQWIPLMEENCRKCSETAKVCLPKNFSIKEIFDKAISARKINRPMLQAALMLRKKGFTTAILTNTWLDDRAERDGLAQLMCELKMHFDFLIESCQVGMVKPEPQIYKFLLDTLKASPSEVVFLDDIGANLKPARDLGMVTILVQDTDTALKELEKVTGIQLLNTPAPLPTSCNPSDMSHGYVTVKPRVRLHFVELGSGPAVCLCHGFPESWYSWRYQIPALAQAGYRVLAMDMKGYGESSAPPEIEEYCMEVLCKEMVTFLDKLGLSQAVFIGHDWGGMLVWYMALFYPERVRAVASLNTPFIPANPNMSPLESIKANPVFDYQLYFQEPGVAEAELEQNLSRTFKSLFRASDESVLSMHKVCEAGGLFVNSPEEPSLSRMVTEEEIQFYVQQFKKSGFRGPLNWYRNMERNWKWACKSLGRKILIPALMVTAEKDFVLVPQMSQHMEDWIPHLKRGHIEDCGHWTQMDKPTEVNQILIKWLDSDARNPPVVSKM

[4] = tested on: HepG2 cells; assay: WST-1 cytotoxicity assay; format: cell-based; details: up to a concentration of 30 μM; 48 hours
Procedure: The WST-1 assay (Roche Diagnostic GmbH, Mannheim, Germany) was used to determine the cell viability after treatment with the compounds. For this purpose, Hela and HepG2 cells were seeded each in 96-well plates at a density of 1×10^4 per well in DMEM with Phenolred and in presence of 10% FCS. After 24 hours the medium was changed. Fresh DMEM with 10% FCS was added and the cells were treated with the compounds for 48 hours. Cell viability was assessed according to the manufacturer's protocol using a microplate reader (infinity M200, Tecan Group Ltd., Crailsheim, Germany). All experiments were performed at least in triplicate.

[5] = tested on: PPARγ target genes (GLUT4, Adiponectin, FABP4, LPL); assay: qPCR of PPARγ target genes in human primary adipocytes; format: cell-based
Procedure: (§3) Human primary preadipocytes were obtained from stromal vascular fraction of subcutaneous fat from anonymous donors undergoing elective cosmetic surgery. Adipose tissue was digested by collagenase solution (0.3 U/ml in 1% BSA/PBS) for 45 min at 37° C. with constant shaking. Floating mature adipocytes were removed and the pellet containing the stromal vascular fraction was resuspended in erythrocyte lysis buffer. […] After 4 days the medium was changed to 3FC medium (QuickDiff medium without dexamethasone, IBMX and rosiglitazone). Adipocytes were cultured for additional 14 days before medium was changed to basal medium consisting of DMEM/Ham's F12 with biotin and panthotenate. This investigation conforms to the ethical principles outlined in the Declaration of Helsinki and was approved by the university ethics committee (Ethik-Kommission des Fachbereichs Medizin der Goethe-Universitat Frankfurt am Main). Total RNA was isolated using PeqGold RNAPure (Peqlab) according to manufacturer's instructions and was transcribed to cDNA using Maxima First Strand cDNA synthesis kit (Thermo Scientific), following manufacturer's instructions. Quantitative PCR was performed with iQ SYBR green Supermix (Bio-Rad) using a CFX96 (Bio-Rad) system. Expression was normalized to actin RNA.

[6] = biological target: T4, hFFA1 (Homo sapiens, UniProt O14842); assay: IP1 accumulation in HEK293 cells stably expressing hFFA1; format: cell-based; details: read-out: pEC50 (IP1 accumulation) (converted)
T4 construct: expressed in transfected cells; host or cells: Flp-In T-REx 293 (HEK293), doxycycline-induced
T4 sequence (O14842 whole entry): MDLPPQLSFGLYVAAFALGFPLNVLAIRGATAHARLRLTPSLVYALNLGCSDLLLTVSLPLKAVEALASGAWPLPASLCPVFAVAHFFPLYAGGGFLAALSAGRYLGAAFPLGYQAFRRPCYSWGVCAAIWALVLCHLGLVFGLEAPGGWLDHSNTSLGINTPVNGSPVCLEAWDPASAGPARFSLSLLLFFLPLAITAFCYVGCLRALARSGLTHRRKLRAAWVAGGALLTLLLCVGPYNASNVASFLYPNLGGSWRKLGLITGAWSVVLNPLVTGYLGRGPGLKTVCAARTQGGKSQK
Procedure: as §1, §2

[7] = tested on: PPARγ target gene CD36; assay: CD36 expression in mouse liver (qPCR); format: in vivo; details: single p.o. 30 mg/kg bw, 8 h; compared to non-treated mice
Procedure: 3T3-L1 cells or homogenized mouse tissues were lysed using TRIzol® reagent (Ambion, life technologies, Carlsbad, USA) and mRNA was isolated following the manufacturers protocol. DNA contaminations were digested using DNAse (DNase I, RNase-free Kit; Thermo Scientific, Waltham, USA) and mRNA concentrations were measured with a NANODROP2000 spectrophotometer (Thermo Scientific, Waltham, USA). Subsequently, reverse transcription was performed using the High Capacity RNA-to-cDNA Kit (Applied Biosystems, Foster City, USA). PCR was performed using specific primers for GLUT-4, FABP-4, LPL, adiponectin and CD36 (shown under supporting informations) with a StepOnePlus Real-Time PCR System (Applied Biosystems, Foster City, USA). NoNo (3T3-L1) and β-Actin (mouse tissue) were used as reference genes. All samples were measured in triplicates and were analyzed using the ΔΔCT method.

[8] = tested on: PPARγ target genes (GLUT4, Adiponectin, FABP4, LPL); assay: qPCR of PPARγ target genes in differentiated 3T3-L1 cells; format: cell-based, murine; details: 1-10 μM; compared to rosiglitazone 2 μM
Procedure: 3T3-L1 cells were subcultured in DMEM containing 10% newborn calf serum in a humidified atmosphere at 37° C., 5% CO2. […] Briefly, cells were seeded in 6-well plates (2.5×10^6/well). Differentiation was started at day 3 by addition of 1 μg/ml insulin, 0.25 dexamethasone and 0.5 mM isobutylmethylxanthine in DMEM supplemented with 10% fetal calf serum. At day 5 medium was replaced by medium containing only insulin for 2 more days. After this, cells were kept for lipid droplet accumulation in basal medium without additions until day 15. […] Differentiation of 3T3-L1 cells was confirmed by Oil Red 0 staining. Cells were washed with PBS and subsequently fixed for 60 minutes with a formaldehyde solution (4% in PBS). After this, cells were rinsed with 60% isopropanol and incubated with Oil Red 0 solution (0.3%) for 120 minutes.
3T3-L1 cells or homogenized mouse tissues were lysed using TRIzol® reagent (Ambion, life technologies, Carlsbad, USA) and mRNA was isolated following the manufacturers protocol. DNA contaminations were digested using DNAse (DNase I, RNase-free Kit; Thermo Scientific, Waltham, USA) and mRNA concentrations were measured with a NANODROP2000 spectrophotometer (Thermo Scientific, Waltham, USA). […] All samples were measured in triplicates and were analyzed using the ΔΔCT method.

[9] = tested on: human primary preadipocytes; assay: Adipocyte differentiation of human primary preadipocytes (Oil Red O staining); format: cell-based; details: 1c 1-10 μM; CIU 10 μM
Procedure: as §3

[10] = tested on: 3T3-L1 fibroblasts; assay: Adipocyte differentiation of murine 3T3-L1 cells (Oil Red O staining); format: cell-based; details: 1c 1-10 μM; CIU 10 μM
Procedure: 3T3-L1 cells were subcultured in DMEM containing 10% newborn calf serum in a humidified atmosphere at 37° C., 5% CO2. […] Briefly, cells were seeded in 6-well plates (2.5×10^6/well). Differentiation was started at day 3 by addition of 1 μg/ml insulin, 0.25 dexamethasone and 0.5 mM isobutylmethylxanthine in DMEM supplemented with 10% fetal calf serum. At day 5 medium was replaced by medium containing only insulin for 2 more days. After this, cells were kept for lipid droplet accumulation in basal medium without additions until day 15.

[11] = Water solubility approximation; format: physicochemical; details: aqueous with cosolvent or surfactant or cyclodextrin, kinetic from dmso stock; PBS pH 7.4, 0.01% Polysorbate 20, 1% DMSO; precipitation at 650 nm; read-out: w.s. (water solubility)
Procedure: PBS at pH 7.4 with 0.01% Polysorbate 20 (Tween) was combined with 1% of a DMSO solution of the inquired compound in a 96-well transparent flat bottom microtiter plate. Precipitation of the compound was measured at 650 nm with a Tecan Infinite 200 (Tecan Group Ltd, Mannedorf, Switzerland).

[12] = biological target: T5, PPARδ (Homo sapiens, UniProt Q03181); assay: PPAR transactivation assay in COS-7 cells (Gal4-hPPAR-LBD, luciferase); format: cell-based; details: i.a. = inactive
T5 construct: expressed in transfected cells; host or cells: COS-7
T5 sequence (Q03181 211-439): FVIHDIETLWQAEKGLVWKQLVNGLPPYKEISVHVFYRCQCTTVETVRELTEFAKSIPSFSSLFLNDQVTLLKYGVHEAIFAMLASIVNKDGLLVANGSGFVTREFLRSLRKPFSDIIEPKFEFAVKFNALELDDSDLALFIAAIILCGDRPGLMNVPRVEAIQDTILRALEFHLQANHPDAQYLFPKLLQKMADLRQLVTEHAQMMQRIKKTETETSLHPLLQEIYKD

[13] = In vitro drug metabolism in rat liver microsomes; format: in vitro ADME; details: 10 μM, 1 h incubation
Procedure: The incubation was performed in a shaking water bath at 37° C. The reaction was stopped by the addition of 500 μl ice-cold methanol at 0, 15, 30 and 60 min. The samples were centrifuged at 10 000 g for 5 min at 4° C. The supernatants were analysed and quantified by HPLC. Control samples were always performed to check the stability of the compounds in the reaction mixture. First control was without NADPH, which is needed for the enzymatic activity of the microsomes. Second control was with inactivated microsomes (microsomes that were incubated for 20 min at 90° C.). Third control was without test compounds (to determine the baseline). As positive control, a solution of 7-ethoxycoumarin (1 mM) was used. The final concentration of the control compound, under assay conditions, was again 10 μM. The amounts of the test compounds were quantified by an external calibration curve.

[14] = after p.o. 30 mg/kg bw of 1c
Procedure: Blood was sampled 15 min, 30 min, 1 h, 2 h, 4 h and 8 h after test item application and only 8 h after vehicle application. Each drug treated mouse was sampled twice (0.25 and 0.5 h, 1 and 2 h, 4 and 8 h) via retro orbital puncture. Blood was collected in tubes containing lithium-heparin, stored on ice and subsequently centrifuged at 6000 rpm for 10 minutes at 4° C. (Heraeus biofuge fresco). The plasma was prepared within 45 min after sampling and kept at −20° C. until being assayed. For further kinetic and dynamic analysis the tissues (brain, liver, abdominal fat) were collected 30 min, 2h and 8 h post dose, after the second plasma sampling of each drug treated mouse. Tissue of the vehicle group was sampled only once, 8 h post dose. A volume of 40 μl acetonitrile containing the internal standard (300 ng/ml Diazepam) was added to 20 μl of mouse plasma sample, plasma calibration standard and plasma QC samples. Samples were vigorously shaken and centrifuged for 10 minutes at 6000 g and 20° C. The particle free supernatant was diluted 1:1 with water. An aliquot was transferred to 200 μl sampler vials and subsequently subjected to LC MS with an injection volume of 20 pl. The brain samples were homogenized in PBS (1+1, w/v) using the Precellys 24/Dual homogenizer. A volume of 20 μl of the brain homogenate was mixed (1+1 v/v/) with 20 μl mouse blank plasma. Then 80 μl acetonitrile containing the internal standard (300 ng/ml Diazepam) were added. Samples were vigorously shaken and centrifuged for 10 minutes at 6000 g and 20° C. The particle free supernatant was diluted 1:1 with water. An aliquot was transferred to 200 μl sampler vials and subsequently subjected to LC MS with an injection volume of 20 μl. Mass spectrometry was performed on a TSQ Quantum Discovery Max triple quadrupole mass spectrometer equipped with an electrospray (ESI) interface (Thermo Fisher Scientific, USA) connected to a PC running the standard software Xcalibur 2.0.7. […]

[15] = tested on: SHROB rats
Procedure: SHROB were treated with RB394 (10 mg/kg/d, p.o.; […]) for 8-weeks.
Metabolic syndrome (MetS) is a cluster of symptoms including hypertension, hyperglycemia, hypertriglyceridemia and obesity. […] The inventors hypothesized that the development of a dual modulator (a drug that combines two pharmacophores) could treat more than one symptom of MetS and prevent renal injury. […] The inventors synthesized a novel dual sEH inhibitor-PPAR-γ agonist (sEHi/PPAR-γ), RB394 and investigated its efficacy in a rat model of MetS (see FIG. 21). Three groups of rats were utilized; Group 1: Wister Kyoto (WKY)+Vehicle (n=6); Group 2: Spontaneously Hypertensive Obese (SHROB)+Vehicle (n=5); Group 3: SHROB+RB394 (10 mg/kg/d p.o.; n=5). RB394 or vehicle treatments were administered for 56 days, blood pressure measured, and urine and kidney tissues collected at the end of treatment period. […] Kidney injury was assessed from albuminuria, and also from histopathological analysis of renal tubular cast formation, collagen formation and glomerular injury using Periodic Acid Schiff and Picro Sirius Red staining.
The Medical College of Wisconsin Institutional Animal Care and Use Committee according to the National Institutes of Health Guidelines for Care and Use of Laboratory Animals approved all animal studies. Eight to nine-week-old male Wistar-Kyoto (WKY), and SHROB were purchased from Charles River Laboratories (Wilmington, Mass., USA). Animals were housed in the Biomedical Resource Center at Medical College of Wisconsin with a 12 hour light-dark cycle and free access to tap water along with rat chow. WKY rats (n=6) were used as a control group as a comparison for disease progression. SHROB rats were divided into 2 groups. Group 1 received vehicle (n=5) and Group 2 received RB394 (10 mg/kg/d p.o.; n=5) for 8 weeks. Rats were weighed and systolic blood pressure was measured by tail-cuff plethysmography.
Intra-peritoneal glucose tolerance test was carried out during the 8-week treatment protocol in rats that were fasted overnight and injected with glucose (2 g/kg i.p.). Blood samples were collected from the tail vein before and at different time points after glucose injection. The tail vein blood glucose levels were measured using a glucometer LifeScan (Miltipas, Calif., USA).
Urinary biochemical analysis was done using commercially available ELISA kits; albumin and from Exocell (Philadelphia, Pa.). Rats were anesthetized using isoflorane and plasma collected from the artery. Triglyceride, cholesterol, protein and creatinine assay kits were from Cayman (Ann Arbor, Mich., USA), and free fatty acids from Zen-Bio Inc. (Research Triangle Park, N.C.). Blood glucose levels from the tail vein were measured using a glucometer.
The kidney was excised and immersion-fixed in 10% neutral buffered formalin and paraffin embedded. The embedded kidney and pancreas sections were cut into 4 μm slices for use in histology. Formalin-fixed paraffin-embedded tissue slices were deparaffinized, re-hydrated, and kidney tissue slices were stained with Periodic Acid-Schiff (PAS) and Masson's Trichorme. Glomerulosclerosis and mesangial matrix expansion were blindly scored from kidney sections stained with PAS staining using the following numeric scale: 0=no damage; +1=very mild; +2=mild; +3=moderate and +4=severe. Two observers in a blinded fashion conducted histological analysis at a magnification of ×200 using Nikon NIS Elements Software (Nikon Instruments Inc., Melville, N.Y., USA). Proteinaceous cast in the kidney was also determined in PAS stained kidney sections at magnification of ×200 using Nikon NIS Elements Software. The percentage area positive for proteinaceous cast was calculated from the mean of eight cortical and five medullary fields for each animal. Fibrosis in the kidney was determined in kidney sections stained with Masson's Trichorme at a magnification of ×200.

[16] = SHROB + RB394 10 mg/kg/d p.o., 8 weeks
[17] = SHROB + RB394 10 mg/kg/d p.o., 56 days

CCC(Cc1ccc(C(=O)NCc2ccccc2C(F)(F)F)cc1)C(=O)O (stereo not shown) [Compound 1c, 2-Ethyl 3-[4-(N-((2-trifluoromethyl)benzyl)benzamide)]propionic acid]
EC50 [1]: 4.9 µM
EC50 PPARα ([2]; i.a. = inactive): i.a.
IC50 [3]: 1.6 ± 0.2 µM
cell viability of HepG2 cells (WST-1) [4]: did not impair cell viability
upregulation of GLUT4 expression ([5]; 1c 10 μM): comparable to the rosiglitazone (2 μM) control
upregulation of Adiponectin, FABP4 and LPL ([5]; 1c stimulation): only minor effects
EC50 [6]: 8.32 µM
increase of CD36 expression in liver [7]: at least 2 fold
expression of PPARγ target genes (GLUT4, Adiponectin, FABP4, LPL) [8]: dose-dependently activated expression of all target genes analysed
adipocyte differentiation (Oil-Red O) [9]: dose dependent (1-10 μM) effect
adipocyte differentiation (Oil-Red O) [10]: dose-dependent effect
solubility [11]: 100 µM (≈ 37.9 µg/mL)
EC50 PPARδ [12]: i.a.
compound remaining intact after 1 h [13]: 92%
AUC0→∞ [14]: 15.847 µg·h/mL
tmax [14]: 30 min

CCC(Cc1ccc(C(=O)NCc2ccc(OC)cc2C(F)(F)F)cc1)C(=O)O (stereo not shown) [Compound 14c, 2-Ethyl 3-14-(N-(4-methoxy(2-trifluoromethyl)benzyl)benzamide)1 propionic acid]
EC50 [1]: 23.4 µM
body weight gained more than vehicle treated SHROB ([15]; 8 weeks): approximately 40 g
systolic blood pressure lower than vehicle treated SHROB ([15]; 8 weeks): approximately 44 mmHg
Body Weight [15, 16]: 600 ± 8 g
Fasting Blood Glucose [15, 16]: 83 ± 7 mg/dL
Free fatty Acid [15, 16]: ^#322 ± 24 μM
Serum Cholesterol [15, 16]: #4.0 ± 0.7 mM
Triglyceride [15, 16]: ^#133 ± 18 mg/DL
albuminuria [15, 17]: 59 ± 11 mg/day
reduction of glomerular injury [15, 17]: 45%
reduction of renal cast and collagen formation [15, 17]: 40-50%
reduction of renal inflammation (infiltrating immune cells in the kidney) [15, 17]: 20%
PPARα activation @10 μM ([2]; at 10 μM, compared to GW7647 1 μM): 29%
cell viability of HepG2 cells (WST-1) [4]: did not impair cell viability
EC50 [6]: 14.1 µM
solubility [11]: 500 µM (≈ 205 µg/mL)
EC50 PPARδ [12]: n.t. i.a. i.a. n.t.
compound remaining intact after 1 h [13]: 96%
